Results on 4 compounds are retold here after patent US12521393B2, “Cytotoxicity targeting chimeras for CCR2-expressing cells” (GLAXOSMITHKLINE INTELLECTUAL PROPERTY DEVELOPMENT LIMITED, priority 2021, dated 2026).

For assay [1], the system named is CCR2 expressing cells (CD11b+Ly6c+Hi) in peripheral blood. Put plainly: In vivo depletion assay, flow cytometry of peripheral blood (Example 201). More on the design: species or system human CCR2 knock-in mice (C57 background). The conditions noted are these: hCCR2 knock-in mice, IV 0.1 mpk compound + 10 mpk anti-cotinine antibody (SEQ ID NO: 13/14), peripheral blood at 48 hr. In short, it runs like this:
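Mice dosed with compound formulated in saline/DMSO/PBS, with anti-cotinine antibody (rabbit variable region, mouse IgG2a Fc) where required, pre-incubated 30 min at room temperature. Terminal peripheral blood RBC-lysed, Fc-blocked, stained for CD45, CD3, CD11b, Ly6C, human CCR2 and 7AAD; percent depletion of CD11b+Ly6c+Hi cells determined by flow cytometry.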
(In general: Flow cytometry measures light scatter and fluorescence of single cells or particles in a stream.)

Assay [2] concerns the target anti-cotinine antibody (SEQ ID NO: 11/12, rabbit variable region with human IgG1 Fc DE mutation). As to the kind of experiment: SPR binding of anti-cotinine antibody to ARM compounds, Biacore T200, 37° C. (Example 202). The following applies: SPR Biacore T200, 37° C., pH 7.4, antibody SEQ ID NO: 11/12 captured on protein A; Kd in molar. In short, it runs like this: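 Antibody captured on a protein A chip; ARM compounds injected at 100 μL/min (200 s association, 2000 s dissociation), 3-fold 5-point series from 200 nM, at 37 °C in HEPES pH 7.4 buffer with 0.005% P20 and 1% DMSO. Double-referenced sensorgrams fit 1:1 for kon, koff, Kd (koff/kon), residence time (1/koff); pKd averaged across runs.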

Assay [3] has as its system endogenous target monocytes in human PBMC. As to the kind of experiment: PBMC ex vivo monocyte depletion flow cytometry assay (Example 200). The assay is classed as cell-based. The following applies: with anti-cotinine antibody (SEQ ID NO: 11/12), 18-24 hours, EC50 in molar, read-out: Ex Vivo Depletion Assay pEC50 (converted). An outline of the steps: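 Monocyte depletion is reported as pEC50, averaged or given individually across runs, and read by flow cytometry staining CD45, CD14 and CD4 with a viability dye. Compounds, diluted four-fold over 11 points from 1 mM DMSO stocks, were combined with 30 μg/mL Fc-enhanced anti-cotinine antibody and human PBMC, then incubated 18-24 h at 37° C.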

`CC(C)N(C)[C@@H]1CC[C@H](N2CC[C@H](Nc3ncnc4ccc(C(F)(F)F)cc34)C2=O)[C@H](NC(=O)CCOCCOCCOCCNc2c(NCCCNC(=O)[C@H]3CC(=O)N(C)[C@@H]3c3cccnc3)c(=O)c2=O)C1` [Example 169, (2S,3S)-N-(3-((2-((2-(2-(2-(3-(((1R,2S,5R)-5-(Isopropyl(methyl)amino)-2-((S)-2-oxo-3-((6-(trifluoromethyl)quinazolin-4-yl)amino)pyrrolidin-1-yl)cyclohexyl)amino)-3-oxopropoxy)ethoxy)ethoxy)ethyl)amino)-3,4-dioxocyclobut-1-en-1-yl)amino)propyl)-1-methyl-5-oxo-2-(pyridin-3-yl)pyrrolidine-3-carboxamide]: the “% Depletion of CCR2 expressing cells” value in assay [1] worked out at 87%. Also, in assay [2], the “pKd of Antibody for ARM Compound of Formula (I)” value (shortened to “pKd of Antibody”) stood at 9.0085. Further, in assay [3], the EC50 is 0.251 nM.

As for `CC(C)N(C)[C@@H]1CC[C@H](N2CC[C@H](Nc3ncnc4ccc(C(F)(F)F)cc34)C2=O)[C@H](NC(=O)[C@H]2CC[C@@H](NC(=O)CCOCCNC(=O)COCCNC(=O)[C@H]3CC(=O)N(C)[C@@H]3c3cccnc3)CC2)C1` [Example 98, (2S,3S)-N-(2-(2-((2-(3-(((1S,4s)-4-(((1R,2S,5R)-5-(Isopropyl(methyl)amino)-2-((S)-2-oxo-3-((6-(trifluoromethyl)quinazolin-4-yl)amino)pyrrolidin-1-yl)cyclohexyl)carbamoyl)cyclohexyl)amino)-3-oxopropoxy)ethyl)amino)-2-oxoethoxy)ethyl)-1-methyl-5-oxo-2-(pyridin-3-yl)pyrrolidine-3-carboxamide], the “% Depletion of CCR2 expressing cells” value in assay [1] amounted to 88%. In assay [2], the “pKd of Antibody” value stood at 9.0095. Moreover, in assay [3], the EC50 was 0.398 nM.

In the case of `CC(C)N(C)[C@@H]1CC[C@H](N2CC[C@H](Nc3ncnc4ccc(C(F)(F)F)cc34)C2=O)[C@H](NC(=O)CCNC2CCC3(CC2)CCN(CCCNC(=O)[C@H]2CC(=O)N(C)[C@@H]2c2cccnc2)CC3)C1` [Example 138, (2S,3S)-N-(3-(9-((3-(((1R,2S,5R)-5-(Isopropyl(methyl)amino)-2-((S)-2-oxo-3-((6-(trifluoromethyl)quinazolin-4-yl)amino)pyrrolidin-1-yl)cyclohexyl)amino)-3-oxopropyl)amino)-3-azaspiro[5.5]undecan-3-yl)propyl)-1-methyl-5-oxo-2-(pyridin-3-yl)pyrrolidine-3-carboxamide], the “% Depletion of CCR2 expressing cells” value in assay [1] is 74.67%. For the same compound, the “pKd of Antibody” value in assay [2] is recorded as 9.0865. In assay [3], the EC50 is 0.158 nM.

Take `CC(C)N(C)[C@@H]1CC[C@H](N2CC[C@H](Nc3ncnc4ccc(C(F)(F)F)cc34)C2=O)[C@H](NC(=O)[C@H]2CC[C@H](NC(=O)CCCO[C@H]3CC[C@@H](OCCNC(=O)[C@H]4CC(=O)N(C)[C@@H]4c4cccnc4)CC3)CC2)C1` [Example 4, (2S,3S)-N-(2-(((1S,4R)-4-(4-(((1R,4R)-4-(((1R,2S,5R)-5-(Isopropyl(methyl)amino)-2-((S)-2-oxo-3-((6-(trifluoromethyl)quinazolin-4-yl)amino)pyrrolidin-1-yl)cyclohexyl)carbamoyl)cyclohexyl)amino)-4-oxobutoxy)cyclohexyl)oxy)ethyl)-1-methyl-5-oxo-2-(pyridin-3-yl)pyrrolidine-3-carboxamide]: the “% Depletion of CCR2 expressing cells” value in assay [1] came to 78.8%. Besides, the “pKd of Antibody” value in assay [2] is reported as 9.526. Moreover, in assay [3], the EC50 was 1 nM.
